Results: publication doi:10.1101/2023.11.24.568596v1 (biorxiv, 2023)

Assays:
Conditions in all cases: binder
[1] = target: T1, BMPR2 (Homo sapiens, UniProt Q13873)
T1 sequence (Q13873 1-1038): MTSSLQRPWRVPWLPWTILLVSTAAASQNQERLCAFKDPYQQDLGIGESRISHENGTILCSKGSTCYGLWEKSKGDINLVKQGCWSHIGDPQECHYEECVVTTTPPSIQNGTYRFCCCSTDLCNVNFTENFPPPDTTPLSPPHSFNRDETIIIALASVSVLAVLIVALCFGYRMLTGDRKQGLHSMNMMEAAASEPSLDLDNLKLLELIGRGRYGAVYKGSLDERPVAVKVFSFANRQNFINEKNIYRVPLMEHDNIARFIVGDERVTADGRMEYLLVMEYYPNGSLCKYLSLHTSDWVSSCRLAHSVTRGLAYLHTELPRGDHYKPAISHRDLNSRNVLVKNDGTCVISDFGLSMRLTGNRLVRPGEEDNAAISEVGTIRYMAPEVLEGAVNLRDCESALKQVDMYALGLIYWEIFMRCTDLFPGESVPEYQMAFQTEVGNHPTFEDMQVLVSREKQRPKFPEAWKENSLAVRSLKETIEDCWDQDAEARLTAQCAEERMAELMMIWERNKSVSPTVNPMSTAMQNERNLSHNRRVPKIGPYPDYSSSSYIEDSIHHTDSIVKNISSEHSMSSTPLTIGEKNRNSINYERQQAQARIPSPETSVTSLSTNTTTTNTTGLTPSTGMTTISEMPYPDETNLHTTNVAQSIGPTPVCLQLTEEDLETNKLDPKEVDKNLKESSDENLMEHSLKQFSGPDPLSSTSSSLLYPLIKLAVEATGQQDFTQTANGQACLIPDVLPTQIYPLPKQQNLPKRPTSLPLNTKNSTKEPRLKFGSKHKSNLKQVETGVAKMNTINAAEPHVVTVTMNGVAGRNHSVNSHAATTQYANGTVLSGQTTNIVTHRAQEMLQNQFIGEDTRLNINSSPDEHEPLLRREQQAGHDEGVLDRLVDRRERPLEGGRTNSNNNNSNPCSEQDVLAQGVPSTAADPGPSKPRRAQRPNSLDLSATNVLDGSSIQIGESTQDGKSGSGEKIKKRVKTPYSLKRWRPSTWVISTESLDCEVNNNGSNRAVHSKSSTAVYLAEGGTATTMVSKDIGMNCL

[2] = target: T2, EphB3 (Homo sapiens, UniProt P54753)
T2 sequence (P54753 1-998): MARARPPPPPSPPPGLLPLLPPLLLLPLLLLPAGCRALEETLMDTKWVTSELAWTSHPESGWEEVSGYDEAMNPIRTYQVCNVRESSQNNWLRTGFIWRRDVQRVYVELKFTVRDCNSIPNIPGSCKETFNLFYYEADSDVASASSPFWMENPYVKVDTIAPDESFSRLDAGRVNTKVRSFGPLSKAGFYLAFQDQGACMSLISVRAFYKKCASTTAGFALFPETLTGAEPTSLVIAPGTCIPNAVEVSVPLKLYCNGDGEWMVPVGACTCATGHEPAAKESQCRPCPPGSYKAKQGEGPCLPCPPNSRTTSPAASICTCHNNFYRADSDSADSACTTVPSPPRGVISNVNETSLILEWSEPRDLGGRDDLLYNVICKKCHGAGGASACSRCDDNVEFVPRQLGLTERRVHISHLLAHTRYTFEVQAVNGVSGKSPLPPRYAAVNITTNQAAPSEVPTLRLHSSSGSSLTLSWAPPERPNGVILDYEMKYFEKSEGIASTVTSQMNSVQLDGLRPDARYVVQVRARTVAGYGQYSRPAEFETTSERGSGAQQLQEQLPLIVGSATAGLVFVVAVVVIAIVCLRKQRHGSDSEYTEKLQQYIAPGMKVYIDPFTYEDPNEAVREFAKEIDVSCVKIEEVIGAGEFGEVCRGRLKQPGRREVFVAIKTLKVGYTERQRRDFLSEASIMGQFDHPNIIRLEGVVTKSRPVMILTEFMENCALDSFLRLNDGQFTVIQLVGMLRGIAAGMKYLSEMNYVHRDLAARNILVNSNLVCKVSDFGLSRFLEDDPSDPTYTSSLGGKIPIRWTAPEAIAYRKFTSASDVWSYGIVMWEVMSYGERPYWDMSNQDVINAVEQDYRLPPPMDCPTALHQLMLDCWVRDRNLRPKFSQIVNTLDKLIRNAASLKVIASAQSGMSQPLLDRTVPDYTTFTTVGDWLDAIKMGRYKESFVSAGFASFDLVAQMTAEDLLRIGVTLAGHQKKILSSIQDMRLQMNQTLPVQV

[3] = target: SRPK1 (Homo sapiens, UniProt Q96SB4)
Chain of SRPK1 (Q96SB4 whole entry): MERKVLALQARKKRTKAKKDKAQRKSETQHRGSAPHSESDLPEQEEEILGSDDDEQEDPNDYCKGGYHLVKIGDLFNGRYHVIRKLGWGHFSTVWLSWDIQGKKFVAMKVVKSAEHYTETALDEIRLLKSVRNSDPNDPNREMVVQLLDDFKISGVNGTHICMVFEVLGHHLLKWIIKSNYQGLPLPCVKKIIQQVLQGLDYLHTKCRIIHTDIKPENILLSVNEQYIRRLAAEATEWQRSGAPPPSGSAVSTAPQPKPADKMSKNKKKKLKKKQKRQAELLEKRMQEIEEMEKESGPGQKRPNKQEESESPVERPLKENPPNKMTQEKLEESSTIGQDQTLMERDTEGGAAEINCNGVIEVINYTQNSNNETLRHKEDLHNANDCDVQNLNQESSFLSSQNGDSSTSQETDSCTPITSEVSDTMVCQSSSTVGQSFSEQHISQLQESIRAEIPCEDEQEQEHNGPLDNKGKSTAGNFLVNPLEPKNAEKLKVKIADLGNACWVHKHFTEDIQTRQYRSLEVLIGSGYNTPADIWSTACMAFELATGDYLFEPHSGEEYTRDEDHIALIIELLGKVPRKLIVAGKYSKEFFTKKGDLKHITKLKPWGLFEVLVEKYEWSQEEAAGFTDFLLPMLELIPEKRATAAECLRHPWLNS

[4] = target: T3, TTK (Homo sapiens, UniProt P33981)
T3 sequence (P33981 1-857): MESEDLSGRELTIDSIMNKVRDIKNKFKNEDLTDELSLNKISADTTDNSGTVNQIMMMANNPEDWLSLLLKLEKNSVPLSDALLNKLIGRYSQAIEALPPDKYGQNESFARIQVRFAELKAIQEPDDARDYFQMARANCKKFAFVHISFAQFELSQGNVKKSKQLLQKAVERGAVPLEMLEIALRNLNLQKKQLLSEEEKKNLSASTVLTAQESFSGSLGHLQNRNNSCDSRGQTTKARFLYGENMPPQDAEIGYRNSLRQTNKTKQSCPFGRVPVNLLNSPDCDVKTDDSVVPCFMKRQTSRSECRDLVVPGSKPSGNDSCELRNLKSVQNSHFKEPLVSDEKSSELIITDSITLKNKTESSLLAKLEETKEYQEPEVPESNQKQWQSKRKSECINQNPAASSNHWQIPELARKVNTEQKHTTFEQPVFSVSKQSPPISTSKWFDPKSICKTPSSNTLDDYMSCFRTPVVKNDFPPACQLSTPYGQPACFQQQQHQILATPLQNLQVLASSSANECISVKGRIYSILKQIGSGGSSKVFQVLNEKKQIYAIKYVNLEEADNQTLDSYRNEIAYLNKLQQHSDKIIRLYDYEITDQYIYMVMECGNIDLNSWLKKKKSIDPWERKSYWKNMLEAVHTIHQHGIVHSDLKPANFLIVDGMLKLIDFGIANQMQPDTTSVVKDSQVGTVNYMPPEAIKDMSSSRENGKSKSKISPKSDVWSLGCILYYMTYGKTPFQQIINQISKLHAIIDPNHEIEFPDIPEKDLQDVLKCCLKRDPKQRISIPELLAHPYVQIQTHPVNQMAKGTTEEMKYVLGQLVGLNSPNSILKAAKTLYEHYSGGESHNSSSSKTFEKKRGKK

In the case of `Cc1cccc(-c2ccc(-c3cc4cnc(Nc5ccc(F)c(CO)c5)nc4n(CCCCN)c3=O)c(Cl)c2)n1` [compound 33, 8-(4-Aminobutyl)-6-(2-chloro-4-(6-methylpyridin-2-yl)phenyl)-2-((4-fluoro-3-(hydroxymethyl)phenyl)amino)pyrido[2,3-d]pyrimidin-7(8H)-one], the “dTm 33” value [1] is reported as -0.1 °C, the “dTm 33” value [2] is reported as 8.7 °C and the “dTm 33” value [3] is reported as -0.2 °C. The “dTm 33” value [4] was 1.3 °C.

With `COc1ccc(O)c(Nc2ncc3cc(-c4ccc(-c5cccc(C)n5)cc4Cl)c(=O)n(CCCCN)c3n2)c1` [compound 34, 8-(4-Aminobutyl)-6-(2-chloro-4-(6-methylpyridin-2-yl)phenyl)-2-((2-hydroxy-5-methoxy-phenyl)amino)pyrido[2,3-d]pyrimidin-7(8H)-one] the “dTm 34” value [1] was 0.0 °C, the “dTm 34” value [2] was 4.1 °C and the “dTm 34” value [3] was 0.1 °C. For the same compound, the “dTm 34” value [4] was 2.9 °C.

In the case of `COc1cc(N2CCOCC2)ccc1Nc1ncc2cc(-c3ccc(-c4cccc(C)n4)cc3Cl)c(=O)n(CCCCN)c2n1` [compound 35, 8-(4-Aminobutyl)-6-(2-chloro-4-(6-methylpyridin-2-yl)phenyl)-2-((2-methoxy-4-morpholino-phenyl)amino)pyrido[2,3-d]pyrimidin-7(8H)-one], the “dTm 35” value [1] is reported as -1.0 °C, the “dTm 35” value [2] is reported as 4.5 °C and the “dTm 35” value [3] is reported as -0.5 °C. For the same compound, the “dTm 35” value [4] was 7.8 °C.

For `COc1cc(N2CCN(C)CC2)ccc1Nc1ncc2cc(-c3ccc(-c4cccc(C)n4)cc3Cl)c(=O)n(CCCCN)c2n1` [compound 36, 8-(4-Aminobutyl)-6-(2-chloro-4-(6-methylpyridin-2-yl)phenyl)-2-((2-methoxy-4-(4-methylpiperazin-1-yl)phenyl)amino)pyrido[2,3-d]pyrimidin-7(8H)-one], the “dTm 36” value [1] was -0.2 °C, the “dTm 36” value [2] was 3.3 °C and the “dTm 36” value [3] was 0.0 °C. The “dTm 36” value [4] was 4.3 °C.
